Laboratory results taken from patent publication US20150174202A1, “Methods and Compositions for Modulating Beta Cell Proliferation” (The Board of Trustees of the Leland Stanford Junior …, priority 2011, published 2015).
Entries after “also recorded” stand apart in the source; their conditions may differ.

Tests used:
Assay type in all cases: cell-based
PDGFRA [1] = experiment: PDGFRA expression in mouse islets exposed to 5-aza-C
Description: (§1) The CpG tool of the UCSC genome browser (v257) identifies two CpG islands upstream of the translational start site of the mouse Pdgfra gene, spanning the regions −9040/−9610 and −5662/−5054 (FIG. 20). The more 3′ promoter-proximal CpG island at −5662/−5054 aligns well with regions associated with histone H3K4me1 and H3K4me3, marks of enhancers or cis-regulatory elements, with lesser overlap in the more 5′ CpG island at −9040/−9610. There are also two CpG islands within the −3,600 to +118 region of the human PDGFRA promoter-proximal region, and evidence exists that DNA methylation within the most 3′ CpG island regulates PDGFRA expression (Toepoel et al 2008). […] These findings indicate that DNA methylation and associated chromatin remodeling regulates expression of islet β-cell PDGFRA.

PDGFRA [2] = experiment: PDGFRA expression in human islets exposed to 5-aza-C
Description: as §1

human islet β-cells = experiment: In vitro human islet β-cell proliferation (BrdU incorporation); details: juvenile human islets, PDGF-AA 50 ng/ml with Sunitinib 2 μM or U0126 10 μM
Description: (§2) For islet studies, human islets were isolated either at Pittsburgh University Medical Center or the University of Alabama, Birmingham. Eight independent human islet preparations from juvenile donors at the age of 8 months, 1.0, 1.5, 2, 3, 4, 5 and 6 years, and three adult islet preparations from donors at the age of 39, 48 and 56 years were used in this study. After isolation, fresh islets were hand-picked and transferred to RPMI-1640 medium supplemented with 0.5% FBS, 0.2% BSA and 2% penicillin/streptomycin for an overnight recovery before experiments. […] To detect in vitro human islet β-cell proliferation stimulated by PDGF-AA, human islets were exposed to 50 μM BrdU for 24 h. Afterwards, human islets were processed in a similar way as in mouse islet studies for immunostaining of insulin, glucagon, PDX1 and BrdU. β-Cell proliferation rate was determined by quantifying percentage of insulin+ cells with BrdU+. More than 50 islets per group were counted for determining cultured human islet β-cell proliferation rate.

mouse islet β-cells = experiment: In vitro mouse islet β-cell proliferation (BrdU incorporation); details: 3 week-old mouse islets, PDGF-AA 50 ng/ml plus inhibitor (Sunitinib 2 μM, Vargatef 5 μM), 2 days
Protocol: Mouse pancreatic islets were purified as described in Chen et al. (2009) Genes Dev. 23, 975-985 and used immediately for assays described in the text. To study Ezh2 induction in cultured islets exposed to mitogens, freshly isolated islets from 2-3-week old, and 7-12-month old C57BL/6 mice were recovered and equilibrated overnight at 37° C., 5% CO2 in RPMI-1640 medium supplemented with 0.5% fetal bovine serum (FBS), 0.2% bovine albumin (BSA) and 2% penicillin/streptomycin. Afterwards, islets were distributed into microplates or dishes, and treated with recombinant human PDGF-AA, prolactin or insulin (Sigma), with or without addition of pharmacological inhibitors, including Sunitinib (Selleck), […]0126 (Sigma), LY294002 (Sigma) or U-73122 (Sigma) at the indicated concentrations. Two days later, islets were harvested for RNA or protein extraction for real-time RTPCR or western blot analyses. To detect phosphorylation of Pdgfr-α by western blot, islets were exposed to PDGF-AA (with or without indicated pharmacological inhibitors) for 90 min before islet harvesting and protein extraction. To detect in vitro islet β-cell proliferation stimulated by PDGF-AA, a final concentration of 50 μM BrdU was introduced into each culture dish 24 h before harvest, followed by standard histological processing. Immunostaining of BrdU and insulin was performed on processed islets, and β-cell proliferation rate was determined by quantifying percentage of insulin+ cells with BrdU+. […] For measuring pancreatic β-cell mass or BrdU by morphometry, three to six mice for each group were analysed. At least five sections separated by more than 300 μm (pancreases) or 50 μm (cultured islets) were immunostained and assessed for each sample. Images were analysed with an ImagePro program by observers blinded to genotype, and pancreatic β-cell mass and percentage of BrdU+β-cells were calculated as described in Chen et al. Polycomb protein Ezh2 regulates pancreatic 6-cell Ink4a/Arf expression and regeneration in diabetes mellitus. […]

EZH2 [3] = experiment: EZH2/EZH1 mRNA in cultured human islets (real-time RT-PCR); details: juvenile human islets, PDGF-AA 50 ng/ml with Sunitinib 2 μM or U0126 10 μM, 2 days
Protocol: as §2, with “Total RNA from freshly isolated or cultured islets after indicated treatments were purified using the Absolutely RNA miniprep purification kit (Stratagene) according to the manufacturer's instructions. RNA concentration was measured with a RiboGreen RNA quantification assay (Invitrogen). One-step quantitative RT-PCR was performed and analysed using an ABI Prism 7300 detection system (Applied Biosystems) with TaqMan one-step RTPCR Master Mix Reagents and appropriate amounts (10-100 ng) of islet total RNA as the template. We calculated the ratio of mRNA for the gene of interest to the amount of internal control mRNA of peptidylprolyl isomerase A (cyclophilin A, PPIA), and then normalized the ratio for each gene to its median. For” for “For”

Ezh2 [4] = experiment: Ezh2/Ezh1 expression in cultured mouse islets (real-time RT-PCR, western blot); details: 2 days; for effect of inhibitor on PDGF-AA-induced Ezh2 expression: 3 week-old mouse islets, PDGF-AA plus inhibitor; for Ezh2 mRNA levels after mitogen exposure: juvenile mouse islets exposed to insulin or prolactin
Protocol: Mouse pancreatic islets were purified as described in Chen et al. (2009) Genes Dev. 23, 975-985 and used immediately for assays described in the text. To study Ezh2 induction in cultured islets exposed to mitogens, freshly isolated islets from 2-3-week old, and 7-12-month old C57BL/6 mice were recovered and equilibrated overnight at 37° C., 5% CO2 in RPMI-1640 medium supplemented with 0.5% fetal bovine serum (FBS), 0.2% bovine albumin (BSA) and 2% penicillin/streptomycin. Afterwards, islets were distributed into microplates or dishes, and treated with recombinant human PDGF-AA, prolactin or insulin (Sigma), with or without addition of pharmacological inhibitors, including Sunitinib (Selleck), […]0126 (Sigma), LY294002 (Sigma) or U-73122 (Sigma) at the indicated concentrations. Two days later, islets were harvested for RNA or protein extraction for real-time RTPCR or western blot analyses. To detect phosphorylation of Pdgfr-α by western blot, islets were exposed to PDGF-AA (with or without indicated pharmacological inhibitors) for 90 min before islet harvesting and protein extraction. To detect in vitro islet β-cell proliferation stimulated by PDGF-AA, a final concentration of 50 μM BrdU was introduced into each culture dish 24 h before harvest, followed by standard histological processing. Immunostaining of BrdU and insulin was performed on processed islets, and β-cell proliferation rate was determined by quantifying percentage of insulin+ cells with BrdU+. Culture experiments of human islets were performed using a similar procedure described later. Total RNA from freshly isolated or cultured islets after indicated treatments were purified using the Absolutely RNA miniprep purification kit (Stratagene) according to the manufacturer's instructions. RNA concentration was measured with a RiboGreen RNA quantification assay (Invitrogen). One-step quantitative RT-PCR was performed and analysed using an ABI Prism 7300 detection system (Applied Biosystems) with TaqMan one-step RTPCR Master Mix Reagents and appropriate amounts (10-100 ng) of islet total RNA as the template. We calculated the ratio of mRNA for the gene of interest to the amount of internal control mRNA of peptidylprolyl isomerase A (cyclophilin A, PPIA), and then normalized the ratio for each gene to its median. For western blots, total islet protein was prepared from freshly isolated or cultured islets after indicated treatments as described in Chen et al. (2009) Genes Dev. 23, 975-985. Equal amounts of protein were resolved on SDS-PAGE and transferred to polyvinylidine fluoride membranes (Amersham Pharmacia) for immunoblotting with specific antibodies, including rabbit polyclonal anti-human Ezh2 (1:1,000, Millipore), rabbit polyclonal anti-phospho-PDGFR-α ([…]) (1:1,000, Santa Cruz Biotechnologies), rabbit monoclonal anti-PDGFR-α (1:1,000, Cell Signaling), mouse monoclonal anti-β-actin (1:4,000, Sigma), rabbit monoclonal anti-Akt (1:1,500, Cell Signaling), rabbit monoclonal anti-phospho-Ark ([…]) (1:1,000, Cell Signaling), rabbit monoclonal anti-p44/42 MAPK (Erk1/2) (1:1,500, Cell Signaling), rabbit monoclonal anti-phospho-p44/42 MAPK (Erk1/2) […]) (1:1,000, Cell Signaling), rabbit monoclonal anti-PLCγ1 (1:1,000, Cell Signaling) and rabbit monoclonal anti-phospho-PLCγ1 ([…]) (1:1,000, Cell Signaling). Signal was visualized using ECL detection (Amersham Pharmacia) on Kodak film after further incubation with HRP-conjugated secondary antibodies. For phospho-PDGFR-α ([…]) and PDGFR-α detection, signal was amplified by incubating the membrane with biotinylated anti-rabbit-IgG (1:2,000), followed with an incubation with HRP-avidin (1:2,000, Vector Laboratories) and then ECL visualization.

In the case of Nc1ncn([C@@H]2O[C@H](CO)[C@@H](O)[C@H]2O)c(=O)n1 [5-aza-C, 5-aza-cytidine], the “derepression of PDGFRA” value (PDGFRA [1]) was “dosage-dependent derepression; also recorded: dosage-dependent de-repression” and the “derepression of PDGFRA” value (PDGFRA [2]) was “dosage-dependent derepression; also recorded: dosage-dependent de-repression”.
N#CC(=C(/N)Sc1ccccc1N)/C(C#N)=C(\N)Sc1ccccc1N [U0126, reference compound] was tested, and the “effect of inhibitor on PDGF-AA-increased β-cell BrdU incorporation” value (human islet β-cells) was “eliminated”, the “effect of inhibitor on PDGF-AA-increased β-cell BrdU incorporation” value (mouse islet β-cells) was “blocked; also recorded: attenuates” and the “effect of inhibitor on PDGF-AA-increased EZH2 mRNA” value (EZH2 [3]) was “blocked”. For the same compound, the “effect of inhibitor on PDGF-AA-induced Ezh2 expression” value (Ezh2 [4]) was “blocked; also recorded: attenuates”.
In the case of COC(=O)c1ccc2c(c1)NC(=O)/C2=C(\Nc1ccc(N(C)C(=O)CN2CCN(C)CC2)cc1)c1ccccc1 [Vargatef, reference compound], the “effect of inhibitor on PDGF-AA-increased β-cell BrdU incorporation” value (mouse islet β-cells) was “eliminated” and the “effect of inhibitor on PDGF-AA-induced Ezh2 expression” value (Ezh2 [4]) was “eliminated”.
insulin was tested, and the “Ezh2 mRNA levels after mitogen exposure” value (Ezh2 [4]) was “did not detectably alter” and the “Ezh2 mRNA levels after mitogen exposure” value (Ezh2 [4]; listed as Insulin) was “did not induce”.
